Data published in patent US20110136883A1, “GRANULATION OF ACTIVE PHARMACEUTICAL INGREDIENTS” (LEK PHARMACEUTICALS D.D., priority 2008, published 2011).

What was measured:
Format in all cases: physicochemical
[1] = Physical properties of bulk powder / final granulate (moisture, densities, compressibility, flowability, angle of repose)
Procedure: Therefore, an oral pharmaceutical dosage needs a high dose of eprosartan mesylate to be incorporated into the pharmaceutical formulation in order to achieve the desired biological effect (here: significant reduction of blood pressure). The recommended daily starting and usual maintenance dose of eprosartan mesylate when used as monotherapy is 735.8 mg, equivalent to 600 mg eprosartan, available as the commercial Teveten 600 mg tablets. Therefore, the amount of excipients, required to achieve satisfactory technological properties (i.e. flowability, compressibility) should be the least possible to keep the weight of the tablet as low as possible (i.e. less than 1000 mg). Solubility, flowability or compressibility can be determined by using known methods in the art, for example the methods explained in the European Pharmacopoeia, 6th Edition. Larger tablets are in the light of patient compliance less preferred. WO 2006/052461 A1 proposes to enhance bioavailability of eprosartan by addition of substantial amounts of a solubilizer and an emulsifier.
Physical properties of briquetting powder as well as final mixture are important for a successful technological procedure using NAMADG.
Further, the impact of various nonaqueos liquid excipients on the formulation of Eprosartan tablets obtained from Examples 3 to 7 (cf. Tables 2 and 3), referring to a matrix of 1000 mg (mass after NAMADG+briquetting+sieving+blending), are summarized in Table 4.

[2] = Hygroscopicity; details: at over 60% RH
Procedure: Hygroscopicity of an API or excipient can be measured by methods known to a skilled person. Mainly, such methods comprise determining the mass of small amounts of sample (i.e. 5-10 mg) as a function of time, while varying the controlled relative humidity and/or temperature in the environment. Data on hygroscopicity of mainly used excipients can be obtained from Handbook of Pharmaceutical Excipients, 4th edition, Rowe R C, Sheskey P J, Weller P J, eds.; Pharmaceutical Press and American Pharmaceutical Association, London-Washington, UK-USA, 2003.

[3] = X-ray diffraction check of eprosartan mesylate form (physical stability during processing); details: ambient temperature and humidity used throughout the NAMADG-based method
Procedure: In order to test the ability of the NAMADG process principle according to the present invention for preparing tablets without occurrence different polymorphic forms of the API in the product, a placebo powder without API and anhydrous eprosartan mesylate processed according to Examples 2 to 7 were investigated. All examples were checked for eprosartan form. For comparison tests were conducted after conventional wet granulation conditions.
As a result, physical stability of the eprosartan mesylate was proven during processes when using the most critical API form, i.e. the anhydrate. […] The final tablet form and placebo powder were analyzed by X-ray diffraction (XRD) pattern to confirm presence of anhydrous form of eprosartan mesylate. More generally, X-ray diffraction (XRD) pattern can be obtained by methods known in the art, for example using Philips X'Pert PRO diffractometer with X'Celerator detector while exposing the searched material to CuKa radiation.

[4] = bulk eprosartan, particle size <10μ

SMILES | Angle of repose (°) [1, 4] [°] | Compressibility (%) [1, 4] [%] | Flow density [1, 4] [mL/g] | Moisture (%) [1, 4] | Tapped density [1, 4] [mL/g] | flowability [1, 4] [g/s] | hygroscopicity [2] | flowability ([1]; drug per se, sticking on punches) | physical and chemical stability [3]
CCCCc1ncc(/C=C(\Cc2cccs2)C(=O)O)n1Cc1ccc(C(=O)O)cc1 [Bulk eprosartan] | >43 | >30 | >4.00 | 0.1-0.5% | >3.00 | <0.10 | – | – | –
CCCCc1ncc(/C=C(\Cc2cccs2)C(=O)O)n1Cc1ccc(C(=O)O)cc1.CS(=O)(=O)O [eprosartan mesylate, (E)-α-[2-n-butyl-1-[(4-carboxyphenyl)methyl]-1H-imidazol-5-yl]methylene-2-thiophenepropionic acid monomethanesulfonate] | – | – | – | – | – | – | hygroscopic | below 0.15 g/sec | physically and chemically stable
